Structures can show the parent of a compound that is named as a salt.

The IC50 is the concentration at which inhibition is half-maximal. A low value points to higher potency.

In the experiment the target is T1, wild-type human ALK (cytoplasmic domain, amino acids 1058-1620, N-terminal GST fusion) (Homo sapiens, UniProt Q9UM73).
T1 construct: The cytoplasmic domain (amino acids 1058-1620) of wild-type human ALK; GST (N); made in house; host or cells: SF9 insect cells
T1 sequence (Q9UM73 1058-1620): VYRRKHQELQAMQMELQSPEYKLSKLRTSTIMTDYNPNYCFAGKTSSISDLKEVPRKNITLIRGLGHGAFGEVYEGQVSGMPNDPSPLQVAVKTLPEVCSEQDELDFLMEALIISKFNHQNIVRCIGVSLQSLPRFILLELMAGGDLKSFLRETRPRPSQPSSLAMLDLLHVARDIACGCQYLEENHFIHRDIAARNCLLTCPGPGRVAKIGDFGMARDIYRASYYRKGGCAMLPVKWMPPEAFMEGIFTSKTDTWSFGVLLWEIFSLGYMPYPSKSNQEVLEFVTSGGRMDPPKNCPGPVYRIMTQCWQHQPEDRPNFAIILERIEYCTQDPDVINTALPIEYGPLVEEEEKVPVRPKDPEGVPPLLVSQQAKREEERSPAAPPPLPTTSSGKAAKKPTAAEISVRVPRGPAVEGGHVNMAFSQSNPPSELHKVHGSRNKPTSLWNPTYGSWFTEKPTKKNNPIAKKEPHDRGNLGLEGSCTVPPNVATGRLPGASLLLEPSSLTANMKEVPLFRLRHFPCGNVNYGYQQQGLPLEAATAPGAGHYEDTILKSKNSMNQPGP
Put plainly: ALK Inhibition in Enzyme Assay (Lance TR-FRET kinase assay). Type of experiment: biochemical. A digest of the protocol: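 Purified enzyme phosphorylated a biotinylated peptide substrate for 90 minutes at room temperature. Reactions were stopped with 20 mM EDTA in 50 mM Tris (pH 7.5), 100 mM NaCl, 0.05% BSA, 0.1% Tween-20. Phosphopeptide was detected by TR-FRET with SA-APC and Eu-W1024 anti-phosphotyrosine antibody PT66, excitation 320 nm.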
In general terms: In TR-FRET formats the signal depends on donor and acceptor labels being close together.
The molecule `CC(C)NC(=O)[C@H]1CC[C@@H](n2/c(=N/C(=O)c3ccc(Br)cc3)[nH]c3cnc(OCCN4CCCCC4)cc32)CC1` [Example 95, (E)-4-Bromo-N-(1-(cis-4-(isopropylcarbamoyl)cyclohexyl)-6-(2-(piperidin-1-yl)ethoxy)-1H-imidazo[4,5-c]pyridin-2(3H)-ylidene)benzamide] came in with an IC50 below 50 nM.

With `CC(C)NC(=O)[C@H]1CC[C@@H](n2/c(=N/C(=O)c3ccc(F)cc3)[nH]c3ccc(OCCN4CCCCC4)cc32)CC1` [Example 155, (E)-4-Fluoro-N-(1-(cis-4-(isopropylcarbamoyl)cyclohexyl)-6-(2-(piperidin-1-yl)ethoxy)-1H-benzo[d]imidazol-2(3H)-ylidene)benzamide], the IC50 was below 50 nM.

`N#Cc1ccc(C(=O)/N=c2\[nH]c3cnc(OCCN4CCCCC4)cc3n2[C@H]2CC[C@@H](C(=O)N3CCNCC3)CC2)cc1` [Example 123, (E)-4-Cyano-N-(1-(cis-4-(piperazine-1-carbonyl)cyclohexyl)-6-(2-(piperidin-1-yl)ethoxy)-1H-imidazo[4,5-c]pyridin-2(3H)-ylidene)benzamide] gave an IC50 below 50 nM. In the case of `CC(=O)N[C@H]1CC[C@H](n2/c(=N/C(=O)c3ccc(F)cc3)[nH]c3ccc(CN4CCC(C(C)(C)O)CC4)cc32)CC1` [Example 229, (E)-N-(1-(trans-4-Acetamidocyclohexyl)-6-((4-(2-hydroxypropan-2-yl)piperidin-1-yl)methyl)-1H-benzo[d]imidazol-2(3H)-ylidene)-4-fluorobenzamide] it was 50 to 100 nM; in that of `C[C@@H]1CN(C(=O)OC(C)(C)C)CCN1C(=O)[C@H]1CC[C@@H](n2/c(=N/C(=O)c3ccc(C#N)cc3)[nH]c3cnc(OCCN4CCCCC4)cc32)CC1` [Example 57, (R)-tert-Butyl 4-(cis-4-((E)-2-(4-cyanobenzoylimino)-6-(2-(piperidin-1-yl)ethoxy)-2,3-dihydro-1H-imidazo[4,5-c]pyridin-1-yl)cyclohexanecarbonyl)-3-methylpiperazine-1-carboxylate], below 50 nM.

In turn, `CC(C)(O)C1CCN(Cc2ccc3[nH]/c(=N\C(=O)c4ccc(F)cc4)n([C@H]4CC[C@@H](C(=O)N5[C@@H]6CC[C@H]5CNC6)CC4)c3c2)CC1` [Example 217, (E)-N-(1-(cis-4-(3,8-Fiazabicyclo[3.2.1]octane-8-carbonyl)cyclohexyl)-6-((4-(2-hydroxypropan-2-yl)piperidin-1-yl)methyl)-1H-benzo[d]imidazol-2(3H)-ylidene)-4-fluorobenzamide dihydrochloride] had an IC50 below 50 nM. With `COc1ccc(COc2ccc3nc(NC(=O)c4ccc(F)cc4)n([C@H]4CC[C@@H](C(=O)NC(C)C)CC4)c3c2)cc1` [Example 153, 4-Fluoro-N-(6-((4-methoxybenzyl)oxy)-1-(cis-4-((1-methylethyl)carbamoyl)cyclohexyl)-1H-benzimidazol-2-yl)benzamide] the figure was below 50 nM; with `CC(C)NC(=O)[C@H]1CC[C@@H](n2/c(=N/C(=O)c3ccnnc3)[nH]c3cnc(OCCN4CCCCC4)cc32)CC1` [Example 97, (E)-N-(1-(cis-4-(Isopropylcarbamoyl)cyclohexyl)-6-(2-(piperidin-1-yl)ethoxy)-1H-imidazo[4,5-c]pyridin-2(3H)-ylidene)pyridazine-4-carboxamide], 50 to 100 nM; with `CNc1ccc(C(=O)/N=c2\[nH]c3cnc(OCCN4CCCCC4)cc3n2[C@H]2CC[C@@H](C(=O)NC(C)C)CC2)cc1` [Example 105, (E)-N-(1-(cis-4-(Isopropylcarbamoyl)cyclohexyl)-6-(2-(piperidin-1-yl)ethoxy)-1H-imidazo[4,5-c]pyridin-2(3H)-ylidene)-4-(methylamino)benzamide], 1000 to 5000 nM.

Molecule `CC(C)NC(=O)[C@H]1CC[C@@H](n2/c(=N/C(=O)c3ccc(C(N)=O)cc3)[nH]c3cnc(OCCN4CCCCC4)cc32)CC1` [Example 122, (E)-N-1-(1-(cis-4-(Isopropylcarbamoyl)cyclohexyl)-6-(2-(piperidin-1-yl)ethoxy)-1H-imidazo[4,5-c]pyridin-2(3H)-ylidene)terephthalamide] displayed an IC50 of 100 to 1000 nM. In the case of `CC(C)NC(=O)[C@H]1CC[C@@H](n2/c(=N/C(=O)c3ccc(F)cc3)[nH]c3ccc(CN4CCN(S(C)(=O)=O)CC4)cc32)CC1` [Example 172, (E)-4-Fluoro-N-(1-(cis-4-(isopropylcarbamoyl)cyclohexyl)-6-((4-(methylsulfonyl)piperazin-1-yl)methyl)-1H-benzo[d]imidazol-2(3H)-ylidene)benzamide] it was below 50 nM; in that of `COC(=O)[C@H]1CC[C@@H](n2/c(=N/C(=O)c3ccc(F)cc3)[nH]c3ccc(CO)cc32)CC1` [Example 2], below 50 nM; in that of `CC(C)NC(=O)[C@H]1CC[C@@H](n2/c(=N/C(=O)c3ccc(F)cc3)[nH]c3cnc(Cl)cc32)CC1` [Example 160, (E)-N-(6-Chloro-1-(cis-4-(isopropylcarbamoyl)cyclohexyl)-1H-imidazo[4,5-c]pyridin-2(3H)-ylidene)-4-fluorobenzamide], below 50 nM. With `CC(C)NC(=O)[C@H]1CC[C@@H](n2/c(=N/C(=O)c3cccc(C(F)(F)F)c3)[nH]c3ccc(CN4CCC(C(C)(C)O)CC4)cc32)CC1` [Example 147, (E)-N-(6-((4-(2-Hydroxypropan-2-yl)piperidin-1-yl)methyl)-1-(cis-4-(isopropylcarbamoyl)cyclohexyl)-1H-benzo[d]imidazol-2(3H)-ylidene)-3-(trifluoromethyl)benzamide] the figure was below 50 nM; with `CC(C)NC(=O)[C@H]1CC[C@@H](n2/c(=N/C(=O)c3ccc(F)cc3)[nH]c3ccc(CN4CCC(F)(F)C4)cc32)CC1` [Example 196, (E)-N-(6-((3,3-Difluoropyrrolidin-1-yl)methyl)-1-(cis-4-(isopropylcarbamoyl)cyclohexyl)-1H-benzo[d]imidazol-2(3H)-ylidene)-4-fluorobenzamide], below 50 nM. In the case of `CC(C)NC(=O)[C@H]1CC[C@@H](n2/c(=N/C(=O)c3ccc(F)cc3)[nH]c3ccc(Cl)cc32)CC1` [Example 219, (E)-N-(6-Chloro-1-(cis-4-(isopropylcarbamoyl)cyclohexyl)-1H-benzo[d]imidazol-2(3H)-ylidene)-4-fluorobenzamide] it was below 50 nM. On to `CC(C)NC(=O)[C@H]1CC[C@@H](n2/c(=N/C(=O)c3cccnc3)[nH]c3cnc(OCCN4CCCCC4)cc32)CC1` [Example 96, (E)-N-(1-(cis-4-(Isopropylcarbamoyl)cyclohexyl)-6-(2-(piperidin-1-yl)ethoxy)-1H-imidazo[4,5-c]pyridin-2(3H)-ylidene)nicotinamide], for which the IC50 was below 50 nM. In the case of `CC(C)NC(=O)[C@H]1CC[C@@H](n2/c(=N/C(=O)c3cncs3)[nH]c3cnc(OCCN4CCCCC4)cc32)CC1` [Example 88, (E)-N-(1-(cis-4-(Isopropylcarbamoyl)cyclohexyl)-6-(2-(piperidin-1-yl)ethoxy)-1H-imidazo[4,5-c]pyridin-2(3H)-ylidene)thiazole-5-carboxamide] it was 50 to 100 nM; in that of `COC(=O)Nc1nc2ccc(CN3CCCCC3)cc2n1[C@H]1CC[C@@H](C(=O)NC(C)C)CC1` [Example 237, Methyl 1-(cis-4-(isopropylcarbamoyl)cyclohexyl)-6-(piperidin-1-ylmethyl)-1H-benzo[d]imidazol-2-ylcarbamate], 100 to 1000 nM. With `COC(=O)[C@H]1CC[C@@H](n2/c(=N/C(=O)c3ccc(F)cc3)[nH]c3ccc(CN4CCC(C(C)(C)O)CC4)cc32)CC1` [Example 209, cis-Methyl 4-((E)-2-(4-fluorobenzoylimino)-6-((4-(2-hydroxypropan-2-yl)piperidin-1-yl)methyl)-2,3-dihydro-1H-benzo[d]imidazol-1-yl)cyclohexanecarboxylate] the figure was below 50 nM; with `C[C@H]1CN(C(=O)[C@H]2CC[C@@H](n3/c(=N/C(=O)c4ccccc4)[nH]c4cnc(OCCN5CCCCC5)cc43)CC2)CCN1` [Example 62], 50 to 100 nM; with `CC(C)NC(=O)[C@H]1CC[C@@H](n2/c(=N/C(=O)c3ccc(F)cc3)[nH]c3cnc(N4CCS(=O)(=O)CC4)cc32)CC1` [Example 223, N-((2E)-6-(1,1-Dioxido-4-thiomorpholinyl)-1-(cis-4-((1-methylethyl)carbamoyl)cyclohexyl)-1,3-dihydro-2H-imidazo[4,5-c]pyridin-2-ylidene)-4-fluorobenzamide], below 50 nM. In the case of `CC(C)NC(=O)[C@H]1CC[C@@H](n2c(N)nc3cnc(OCCN4CCCCC4)cc32)CC1` [Example 86, cis-4-(2-Amino-6-(2-(piperidin-1-yl)ethoxy)-1H-imidazo[4,5-c]pyridin-1-yl)-N-isopropylcyclohexanecarboxamide] it was 5000 to 10000 nM; in that of `COC(=O)[C@H]1CC[C@@H](n2c(NC(=O)c3ccccc3)nc3ccc(CN4C(C)(C)CCCC4(C)C)cc32)CC1` [Example 19, cis-Methyl 4-(2-benzamido-6-((2,2,6,6-tetramethylpiperidin-1-yl)methyl)-1H-benzo[d]imidazol-1-yl)cyclohexanecarboxylate], below 50 nM.

`CC(C)NC(=O)[C@H]1CC[C@@H](n2/c(=N/C(=O)c3ccc(F)cc3)[nH]c3ccc(S(C)(=O)=O)cc32)CC1` [Example 238, (E)-4-Fluoro-N-(1-(cis-4-(isopropylcarbamoyl)cyclohexyl)-6-(methylsulfonyl)-1H-benzo[d]imidazol-2(3H)-ylidene)benzamide] showed an IC50 below 50 nM. With `COC(=O)[C@H]1CC[C@@H](n2c(NC(=O)c3ccccc3)nc3ccc(CN4CCOCC4)cc32)CC1` [Example 5, cis-Methyl 4-(2-benzamido-6-(morpholinomethyl)-1H-benzo[d]imidazol-1-yl)cyclohexanecarboxylate] the figure was below 50 nM.

(Values after patent US9115127B2 (AMGEN INC., priority 2010, dated 2015).)
